{"source": "patent US20090192312A1", "about": "“Brain Function-Improving Agent, and Functional Food Containing the Improving Agent” (MITSUBISHI GAS CHEMICAL COMPANY, INC., priority 2006, published 2009)", "tested_on": "Male Wistar rats", "test": "Morris water maze test of learning and memory abilities", "format": "in vivo", "settings": "feed containing 0.02% PQQ·2Na, 21 days of breeding; one trial daily for 20 days; versus PQQ·2Na-free treatment groups; 9 animals per group", "source_text": "Male Wistar rats (9 weeks old) were bred using a feed containing 0.02% pyrroloquinoline quinone disodium salt (PQQ·2Na) or 0.3% coenzyme Q10 (CoQ10) alone or both in combination or a feed free from these compounds. From the age of 12 week old after 21 days of breeding, 9 animals per group were subjected to a test of learning and memory abilities using a Morris water maze. Specifically, the bottom of a circular pool (150 cm in diameter, 45 cm in depth) was divided into four quadrants with white lines. A circular platform was placed at the center of one of the quadrants so that it was hidden under the water. Each rat was allowed to swim from different positions of the other three quadrants having no platform, and the time until it reached the platform was measured. This test was tried once daily for a total of 20 days. The learning rate was calculated by the following equation: Learning rate (%)=100−(mean time until rat reaches the platform at the Xth trial/mean time until rat reaches the platform at the first trial)×100"}
{"compound": "O=C(O)c1cc(C(=O)O)c2c(n1)C(=O)C(=O)c1cc(C(=O)O)[nH]c1-2.[Na].[Na]", "note": "[PQQ·2Na, pyrroloquinoline quinone disodium salt]", "values": [{"measurement": "increasing rate of the learning rate", "value": "statistically significantly higher"}]}
